Experimental data reported in article PMC9270327 (Communications Biology, 2022).
Where “and” joins values, the source holds several entries; their conditions need not be identical. Identical values can stand only once. Counter-ions that a name gives are not always drawn. Like-named read-outs stand apart in the source and are kept apart here.

How the values were obtained:
[1] = test system: lentiviral pseudoparticles carrying SARS-CoV-2 Wuhan-Hu-1 spike, Caco-2 cells; type: cell-based; details: for IC50: Caco-2 cells, luciferase 2 days post transduction, read-out: IC50 pseudotyped lentivirus Wuhan-Hu-1
[2] = target: TMPRSS2 (Homo sapiens, UniProt O15393)
Chain of TMPRSS2 (O15393 whole entry): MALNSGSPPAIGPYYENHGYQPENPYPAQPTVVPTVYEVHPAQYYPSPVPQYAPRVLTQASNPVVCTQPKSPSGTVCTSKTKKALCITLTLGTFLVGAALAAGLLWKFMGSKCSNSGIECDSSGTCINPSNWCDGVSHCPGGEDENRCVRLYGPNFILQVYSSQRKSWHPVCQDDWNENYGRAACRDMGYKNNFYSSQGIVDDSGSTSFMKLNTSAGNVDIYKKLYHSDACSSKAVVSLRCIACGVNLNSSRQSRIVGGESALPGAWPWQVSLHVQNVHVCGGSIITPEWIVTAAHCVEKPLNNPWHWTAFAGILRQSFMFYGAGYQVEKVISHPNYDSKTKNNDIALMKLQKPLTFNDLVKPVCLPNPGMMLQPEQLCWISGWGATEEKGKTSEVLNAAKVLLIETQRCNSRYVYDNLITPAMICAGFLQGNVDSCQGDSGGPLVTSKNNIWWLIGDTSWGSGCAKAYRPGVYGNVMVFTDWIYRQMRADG
Method: Negative ctrl: no inhibitor, positive ctrl: inhibitor in assay buffer. d Inhibitory constants Ki as determined from (a–c). Shown are the means ± SD of n = 1 experiment performed in triplicates. No inh. no inhibition.
The activity of the compounds against the recombinant human enzymes was determined in enzyme inhibition assays. […] The measurements were performed on a Tecan infinite® M1000 and the fluorescence intensity was measured by exciting the AMC fluorophore at 380 nm wavelength and recording emission at 460 nm wavelength. […] Fluorescence intensities and absorption were measured every 2 min for 2 h or as endpoint after 2 h. […] To determine the IC50 values, the concentration-response data were plotted with the program GraphPad prism version 8.4.2 (San Diego, California) and a nonlinear regression fit with the equation [Inhibitor] vs. normalized response was applied. The inhibitory constant Ki was calculated from the IC50 values using the Cheng–Prusoff equation (Ki = IC50/[S]/KM) for competitive reversible inhibitors[66].
The stability of the inhibitors was measured according to a modified procedure from ref. [67]. […] At indicated timepoints, 100 µL samples were taken and mixed with 200 µL of ethanol to precipitate proteins. […] The supernatant was aspirated and analyzed using analytical HPLC. The residual inhibitory constants Ki after incubation was assessed by mixing serial dilutions of the inhibitor with recombinant TMPRSS2 as described above.

[3] = test system: Caco-2 cells; details: Fig. 6e
[4] = Fig. 5a, compound 20000 nM, […]
[5] = Fig. 5a, compound 100000 nM, […]
[6] = inhibitor 0.0167 nM, 0 min in serum
[7] = inhibitor 0.0167 nM, 30 min in serum
[8] = inhibitor 0.0167 nM, 60 min in serum
[9] = inhibitor 0.0167 nM, 120 min in serum
[10] = inhibitor 0.0167 nM, 24 h in serum
[11] = inhibitor 0.0167 nM, 10 d in serum
[12] = inhibitor 0.0167 nM, positive ctrl
[13] = inhibitor 0.167 nM, 0 min in serum
[14] = inhibitor 0.167 nM, 30 min in serum
[15] = inhibitor 0.167 nM, 60 min in serum
[16] = inhibitor 0.167 nM, 120 min in serum
[17] = inhibitor 0.167 nM, 24 h in serum
[18] = inhibitor 0.167 nM, 10 d in serum
[19] = inhibitor 0.167 nM, positive ctrl
[20] = inhibitor 1.665 nM, 0 min in serum
[21] = inhibitor 1.665 nM, 30 min in serum
[22] = inhibitor 1.665 nM, 60 min in serum
[23] = inhibitor 1.665 nM, 120 min in serum
[24] = inhibitor 1.665 nM, 24 h in serum
[25] = inhibitor 1.665 nM, 10 d in serum
[26] = inhibitor 1.665 nM, positive ctrl
[27] = inhibitor 16.65 nM, 0 min in serum
[28] = inhibitor 16.65 nM, 30 min in serum
[29] = inhibitor 16.65 nM, 60 min in serum
[30] = inhibitor 16.65 nM, 120 min in serum
[31] = inhibitor 16.65 nM, 24 h in serum
[32] = inhibitor 16.65 nM, 10 d in serum
[33] = inhibitor 16.65 nM, positive ctrl
[34] = inhibitor 166.5 nM, 0 min in serum
[35] = inhibitor 166.5 nM, 30 min in serum
[36] = inhibitor 166.5 nM, 60 min in serum
[37] = inhibitor 166.5 nM, 120 min in serum
[38] = inhibitor 166.5 nM, 24 h in serum
[39] = inhibitor 166.5 nM, 10 d in serum
[40] = inhibitor 166.5 nM, positive ctrl
[41] = inhibitor 1665 nM, 0 min in serum
[42] = inhibitor 1665 nM, 30 min in serum
[43] = inhibitor 1665 nM, 60 min in serum
[44] = inhibitor 1665 nM, 120 min in serum
[45] = inhibitor 1665 nM, 24 h in serum
[46] = inhibitor 1665 nM, 10 d in serum
[47] = inhibitor 1665 nM, positive ctrl

ace-Arg-Pro-Arg-kbt [Compound 2]
SARS-CoV-2 spike driven entry, Mean (0 nM = 100) [1]: 93.4665
IC50 [1]: 1620 nM
SARS-CoV-2 spike driven entry, Mean (0 nM = 100) ([1]; Fig. 5a, compound 160 nM, […]): 93.5815
SARS-CoV-2 spike driven entry, Mean (0 nM = 100) ([1]; Fig. 5a, compound 800 nM, […]): 73.183
SARS-CoV-2 spike driven entry, Mean (0 nM = 100) ([1]; Fig. 5a, compound 4000 nM, […]): 22.027
SARS-CoV-2 spike driven entry, Mean (0 nM = 100) [1, 4]: 3.879
SARS-CoV-2 spike driven entry, Mean (0 nM = 100) [1, 5]: 2.5725
increase in Ki values against TMPRSS2 ([2]; incubation in human serum during the course of 10 days): 1.4–1.8 fold
TMPRSS2 activity, Mean (0 nM = 100) [2, 6]: 106.1220
TMPRSS2 activity, Mean (0 nM = 100) [2, 7]: 99.5878
TMPRSS2 activity, Mean (0 nM = 100) [2, 8]: 97.9753
TMPRSS2 activity, Mean (0 nM = 100) [2, 9]: 103.1067
TMPRSS2 activity, Mean (0 nM = 100) [2, 10]: 102.6336
TMPRSS2 activity, Mean (0 nM = 100) [2, 11]: 99.7199
TMPRSS2 activity, Mean (0 nM = 100) [2, 12]: 99.3394
TMPRSS2 activity, Mean (0 nM = 100) [2, 13]: 105.3800
TMPRSS2 activity, Mean (0 nM = 100) [2, 14]: 98.0548
TMPRSS2 activity, Mean (0 nM = 100) [2, 15]: 98.4409
TMPRSS2 activity, Mean (0 nM = 100) [2, 16]: 101.9976
TMPRSS2 activity, Mean (0 nM = 100) [2, 17]: 99.8791
TMPRSS2 activity, Mean (0 nM = 100) [2, 18]: 99.7654
TMPRSS2 activity, Mean (0 nM = 100) [2, 19]: 97.2281
TMPRSS2 activity, Mean (0 nM = 100) [2, 20]: 108.2341
TMPRSS2 activity, Mean (0 nM = 100) [2, 21]: 98.1707
TMPRSS2 activity, Mean (0 nM = 100) [2, 22]: 94.8463
TMPRSS2 activity, Mean (0 nM = 100) [2, 23]: 98.7901
TMPRSS2 activity, Mean (0 nM = 100) [2, 24]: 99.7583
TMPRSS2 activity, Mean (0 nM = 100) [2, 25]: 103.5823
TMPRSS2 activity, Mean (0 nM = 100) [2, 26]: 91.5051
TMPRSS2 activity, Mean (0 nM = 100) [2, 27]: 98.1805
TMPRSS2 activity, Mean (0 nM = 100) [2, 28]: 91.6522
TMPRSS2 activity, Mean (0 nM = 100) [2, 29]: 87.0886
TMPRSS2 activity, Mean (0 nM = 100) [2, 30]: 89.1234
TMPRSS2 activity, Mean (0 nM = 100) [2, 31]: 89.0776
TMPRSS2 activity, Mean (0 nM = 100) [2, 32]: 93.1155
TMPRSS2 activity, Mean (0 nM = 100) [2, 33]: 59.7913
TMPRSS2 activity, Mean (0 nM = 100) [2, 34]: 41.7125
TMPRSS2 activity, Mean (0 nM = 100) [2, 35]: 36.7343
TMPRSS2 activity, Mean (0 nM = 100) [2, 36]: 32.5087
TMPRSS2 activity, Mean (0 nM = 100) [2, 37]: 34.3878
TMPRSS2 activity, Mean (0 nM = 100) [2, 38]: 36.8130
TMPRSS2 activity, Mean (0 nM = 100) [2, 39]: 52.5195
TMPRSS2 activity, Mean (0 nM = 100) [2, 40]: 21.7311
TMPRSS2 activity, Mean (0 nM = 100) [2, 41]: 8.0842
TMPRSS2 activity, Mean (0 nM = 100) [2, 42]: 8.9275
TMPRSS2 activity, Mean (0 nM = 100) [2, 43]: 5.1862
TMPRSS2 activity, Mean (0 nM = 100) [2, 44]: 6.5663
TMPRSS2 activity, Mean (0 nM = 100) [2, 45]: 7.0802
TMPRSS2 activity, Mean (0 nM = 100) [2, 46]: 12.0706
TMPRSS2 activity, Mean (0 nM = 100) [2, 47]: 5.8217

CN(C)C(=O)COC(=O)Cc1ccc(OC(=O)c2ccc(NC(=N)N)cc2)cc1 [CM, camostat mesylate, reference compound]
SARS-CoV-2 spike driven entry, Mean (0 nM = 100) [1]: 90.0332
IC50 [1]: 748 nM and ~748 nM
SARS-CoV-2 spike driven entry, Mean (0 nM = 100) ([1]; Fig. 5a, compound 160 nM, […]): 75.4652
SARS-CoV-2 spike driven entry, Mean (0 nM = 100) ([1]; Fig. 5a, compound 800 nM, […]): 52.9188
SARS-CoV-2 spike driven entry, Mean (0 nM = 100) ([1]; Fig. 5a, compound 4000 nM, […]): 17.6822
SARS-CoV-2 spike driven entry, Mean (0 nM = 100) [1, 4]: 3.857
SARS-CoV-2 spike driven entry, Mean (0 nM = 100) [1, 5]: 2.478
residual inhibitory activity against TMPRSS2 after incubation in body fluids ([2]; human serum / plasma, up to 10 days): inactive
reduction of activity against TMPRSS2 upon addition to serum ([2]; immediately after addition to human serum): around 60 fold
TMPRSS2 activity, Mean (0 nM = 100) [2, 6]: 97.0909
TMPRSS2 activity, Mean (0 nM = 100) [2, 7]: 98.7509
TMPRSS2 activity, Mean (0 nM = 100) [2, 8]: 96.1122
TMPRSS2 activity, Mean (0 nM = 100) [2, 9]: 96.1122
TMPRSS2 activity, Mean (0 nM = 100) [2, 10]: 109.9729
TMPRSS2 activity, Mean (0 nM = 100) [2, 11]: 104.3134
TMPRSS2 activity, Mean (0 nM = 100) [2, 12]: 91.4692
TMPRSS2 activity, Mean (0 nM = 100) [2, 13]: 95.7227
TMPRSS2 activity, Mean (0 nM = 100) [2, 14]: 96.8742
TMPRSS2 activity, Mean (0 nM = 100) [2, 15]: 95.2722
TMPRSS2 activity, Mean (0 nM = 100) [2, 16]: 95.2722
TMPRSS2 activity, Mean (0 nM = 100) [2, 17]: 109.0078
TMPRSS2 activity, Mean (0 nM = 100) [2, 18]: 107.9350
TMPRSS2 activity, Mean (0 nM = 100) [2, 19]: 67.2760
TMPRSS2 activity, Mean (0 nM = 100) [2, 20]: 91.6733
TMPRSS2 activity, Mean (0 nM = 100) [2, 21]: 104.2530
TMPRSS2 activity, Mean (0 nM = 100) [2, 22]: 90.9967
TMPRSS2 activity, Mean (0 nM = 100) [2, 23]: 90.9967
TMPRSS2 activity, Mean (0 nM = 100) [2, 24]: 110.5140
TMPRSS2 activity, Mean (0 nM = 100) [2, 25]: 105.0630
TMPRSS2 activity, Mean (0 nM = 100) [2, 26]: 16.5425
TMPRSS2 activity, Mean (0 nM = 100) [2, 27]: 58.3113
TMPRSS2 activity, Mean (0 nM = 100) [2, 28]: 66.2869
TMPRSS2 activity, Mean (0 nM = 100) [2, 29]: 73.7709
TMPRSS2 activity, Mean (0 nM = 100) [2, 30]: 73.7709
TMPRSS2 activity, Mean (0 nM = 100) [2, 31]: 114.2941
TMPRSS2 activity, Mean (0 nM = 100) [2, 32]: 105.5411
TMPRSS2 activity, Mean (0 nM = 100) [2, 33]: 3.2273
TMPRSS2 activity, Mean (0 nM = 100) [2, 34]: 7.4453
TMPRSS2 activity, Mean (0 nM = 100) [2, 35]: 7.7321
TMPRSS2 activity, Mean (0 nM = 100) [2, 36]: 7.7056
TMPRSS2 activity, Mean (0 nM = 100) [2, 37]: 7.7056
TMPRSS2 activity, Mean (0 nM = 100) [2, 38]: 43.5256
TMPRSS2 activity, Mean (0 nM = 100) [2, 39]: 104.8964
TMPRSS2 activity, Mean (0 nM = 100) [2, 40]: 1.7660
TMPRSS2 activity, Mean (0 nM = 100) [2, 41]: 2.9461
TMPRSS2 activity, Mean (0 nM = 100) [2, 42]: 4.0032
TMPRSS2 activity, Mean (0 nM = 100) [2, 43]: 3.9955
TMPRSS2 activity, Mean (0 nM = 100) [2, 44]: 3.9955
TMPRSS2 activity, Mean (0 nM = 100) [2, 45]: 8.1597
TMPRSS2 activity, Mean (0 nM = 100) [2, 46]: 96.3530
TMPRSS2 activity, Mean (0 nM = 100) [2, 47]: 2.6461
Cell viability, Mean (0 nM = 100) ([3]; compound 0.26 nM): 104.56
Cell viability, Mean (0 nM = 100) ([3]; compound 1.28 nM): 104.124
Cell viability, Mean (0 nM = 100) ([3]; compound 6.4 nM): 104.38
Cell viability, Mean (0 nM = 100) ([3]; compound 32 nM): 101.009
Cell viability, Mean (0 nM = 100) ([3]; compound 160 nM): 106.562
Cell viability, Mean (0 nM = 100) ([3]; compound 800 nM): 101.849
Cell viability, Mean (0 nM = 100) ([3]; compound 4000 nM): 104.127
Cell viability, Mean (0 nM = 100) ([3]; compound 20000 nM): 103.706
Cell viability, Mean (0 nM = 100) ([3]; compound 100000 nM): 93.2448
